According to patent US20110236406A1, “IMMUNOGENIC COMPOSITIONS COMPRISING HMGB1 POLYPEPTIDES” (MedImmune, LLC, priority 2004, published 2011):
Entries after “also recorded” stand apart in the source; their conditions may differ. No end group written: not given here. *: point of attachment. Biotin = O=C1N[C@H]2[C@H](CS[C@H]2CCCCC(=O)*)N1

Assays:
murine BM-DCs [1] = assay: Cytokine and chemokine secretion by murine bone marrow-derived DCs (ELISA); assay type: cell-based, mouse; parameters: key to TNFα / IL-18 / IL-8 / IL-10 / IL-2 / IL-1β / IL-5 / IL-6 / IL-12: + indicates increase; − indicates no change compared to medium; details: for IL-1β / IL-2 / IL-5 / IL-6 / IL-8 / IL-10 / IL-12 / IL-18 / TNFα: Murine DC, ELISA 48 h after exposure, compared to medium
Description: (§1) Bone marrow-derived DCs (BM-DC) were generated using modifications of the original method described by Inaba et al (42). In brief, bone marrow suspensions were incubated with red cell lysis buffer (PUREGENE™ RBC Lysis Solution, Gentra Systems, Minneapolis, Minn.) to remove red blood cells. After washing in media, lymphocytes and Ia-positive cells were killed with a cocktail of mAbs and rabbit complement for 60 min at 37° C. The mAbs were GK1.5 anti-CD4, TIB211 anti-CD8, TIB 120 anti-Ia, and TM 146 anti B220 (The Abs were kindly provided by Dr. Ralph Steinman). The cells were subsequently cultured in media containing 5% FCS and 10 ng/ml recombinant mouse GM-CSF (R&D Systems; Minneapolis, Minn.) for 7 days. For some experiments the cells were further purified at day 7 using CD11c^+-microbeads (Miltenyi Biotech., Auburn, Calif.) according to the manufacturer's instructions.
(§2) At day 7 of culture, immature DCs were either left untreated, or were stimulated with indicated doses of HMGB1-Bx, HMGB1 peptides, or LPS (E. coli serotype 026:B6, Sigma). In all experiments, DCs were analyzed 48 h after stimulation.
(§3) 48 h post activation, the production of cytokines and chemokines in cell culture supernatants was measured by ELISA (Pierce Boston Technology Center, SearchLight™ Proteome Arrays Multiplex Sample Testing Services, Woburn, Mass.).

[2] = test system: human monocyte-derived DCs; assay: Cytokine and chemokine secretion by human immature monocyte-derived DCs (ELISA); assay type: cell-based; parameters: key to TNFα / IL-18 / IL-8 / IL-10 / IL-6 / IL-12: + indicates increase; − indicates no change compared to medium; details: for secretion of IL-6 / secretion of IL-8 / secretion of IL-12 (p70) / secretion of IL-18 / secretion of TNF-α: HMGB1-Bx 50 μg/ml, polymyxin B; for secretion of IL-6: FIG. 8A, 8B; for secretion of IL-8 / secretion of IL-12 (p70) / secretion of IL-18 / secretion of TNF-α: FIG. 8C; for IL-6 / IL-8 / IL-10 / IL-12 / IL-18 / TNFα: HUMAN DC, ELISA 48 h after exposure, compared to medium
Description: (§4) PBMCs were isolated from the blood of normal volunteers (Long Island Blood Services, Melville, N.Y.) over a Ficoll-Hypaque (Amersham Biosciences, Uppsala, Sweden) density gradient. CD14^+ monocytes were isolated from PBMCs by positive selection using anti-CD14 beads (Miltenyi Biotech., Auburn, Calif.) following the manufacturer's instructions. To generate DCs, CD14^+ cells were cultured in RPMI 1640 medium supplemented with 2 mM L-glutamine (GIBCO-BRL Life Technologies; Grand Island, N.Y.), 50 μM 2-mercaptoethanol (Sigma, St. Louis, Mo.), 10 mM HEPES (GIBCO-BRL), penicillin (100 U/ml)-streptomycin (100 μg/ml) (GIBCO-BRL), and 5% human AB serum (Gemini Bio-Products, Woodland, Calif.). Cultures were maintained for 7 days in 6-well trays (3×10^6 cells/well) supplemented with 1000 U GM-CSF per ml (Immunex, Seattle, Wash.) and 200 U IL-4 per ml (R&D Systems; Minneapolis, Minn.) at days 0, 2, 4 and 6.
(§5) At day 7 of culture, immature DCs were either left untreated (“immature”, IM), or were stimulated with indicated doses of (i) LPS (E. coli serotype 026:B6, Sigma), (ii) 500 ng/ml of trimeric CD40L (Alexis Biochemicals; San Diego, Calif.), (iii) a cocktail of cytokines (CyC) consisting of IL-6 at 1000 U/ml, TNFα at 10 ng/ml, IL-1β at 10 ng/ml (all from R&D Systems) and prostaglandin E2 (PGE-2) at 1 μg/ml (Sigma), or with (v) non-methylated CpG oligonucleotides (5′ […] 3′) at 30 μg/ml. The sequence of this oligonucleotide is known to induce DC maturation (4), except that it contains an unmodified phosphodiester backbone. In all experiments, DCs were analyzed 48 h after stimulation. All experiments using the rB box were performed in the presence of polymyxin B sufficient to neutralize greater than 10-fold more LPS than present in rB box preparations.
as §3
as §4, with “DCs, CD 14^+” for “DCs, CD14^+”
as §2

murine BM-DCs [3] = assay: Phenotypic maturation of murine BM-DCs (surface markers, FACS); assay type: cell-based, mouse; details: CD11c+ gated BM-DCs, 48 h; HMGB1-Bx 50 μg/ml, peptides 200 μg/ml
Description: as §1, §2
1×10^4 DCs were reacted for at least 20 min at 4° C. in 100 μl of PBS/5% FCS/0.1% sodium azide (staining buffer) with fluorescein isothiocyanate (FITC)-conjugated IgG mAb specific for CD86, CD40 and MHC-II (eBioscience). Cells were then washed 4 times with staining buffer, fixed in 10% formaldehyde in PBS (pH 7.2-7.4) and examined by flow cytometry using a FACScan (BD). In all experiments, isotype controls were included using FITC-conjugated irrelevant mAb of the same Ig class.

allogeneic T cells = assay: Mixed leukocyte reaction, stimulated murine BM-DCs with allogeneic T cells; assay type: cell-based, mouse; details: BM-DCs from C57/BL6 mice; HMGB1-Bx 50 μg/ml, peptides 200 μg/ml, 48 h; 5-day co-culture
Description: T cells were isolated by negative selection using the mouse SpinSep antibody cocktail from StemCell Technologies (Vancouver, Calif.) according to the manufacturer's instructions. The cell purity of the isolated T cells was routinely ˜99% pure.
To assess levels of T cell activation and proliferation, cells were plated at 10^5 cells per well in a round-bottomed 96-well tray at DC:T cell ratios of 1:120 for 5 days in medium described above. The microcultures were pulsed with (^3H)-thymidine (1 μCi/well) for the final 8 h of culture. Cell cultures were harvested onto glass fiber filters with an automated multiple sample harvester and the amount of isotope incorporation was determined by liquid scintillation β-emission. Responses are reported as mean cpm of thymidine incorporation by triplicate cultures (+/−SEM).

immature DCs = assay: Phenotypic maturation of human DCs (surface markers, FACS); assay type: cell-based; details: 48 h, rHMGB1 0.1-10.0 μg/ml
Description: as §4, §5
1×10^4 DCs were reacted for at least 20 min at 4° C. in 100 μl of PBS/5% FCS/0.1% sodium azide (staining buffer) with phycoerythrin (PE)-conjugated IgG specific for CD206, CD54, HLA-DR (all from Beckton Dickinson Immunostaining Systems; San Jose. Calif.) and CD83 (Immunotech-Beckman-Coulter; Marseille, France) or fluorescein isothiocyanate (FITC)-conjugated IgG mAb specific for CD80, CD40 and CD58 (all from Beckton Dickinson Immunostaining Systems; San Jose. Calif.). Cells were then washed 4 times with staining buffer, fixed in 10% formaldehyde in PBS (pH 7.2-7.4) and examined by flow cytometry using a FACScan (BD). In all experiments, isotype controls were included using an appropriate PE- or FITC-conjugated irrelevant mAb of the same Ig class.

[4] = peptides 200 μg/ml, HMGB1-Bx 50 μg/ml, polymyxin B, 48 h
[5] = Example 2, peptides 200 μg/ml, 48 h
[6] = peptides 200 μg/ml, polymyxin B, 48 h

Row | Substance | IL-1β (murine BM-DCs [1]) | IL-2 (murine BM-DCs [1]) | IL-5 (murine BM-DCs [1]) | IL-6 (murine BM-DCs [1]) | IL-10 (murine BM-DCs [1]) | IL-12 (murine BM-DCs [1]) | activation of murine BM-DCs (murine BM-DCs [1]; peptides 200 μg/ml, 48 h) | secretion of IL-2 (murine BM-DCs [1]; [4]) | secretion of IL-5 (murine BM-DCs [1]; [4]) | secretion of IL-6 [2, 5] | IL-6 [2] | IL-8 [2] | IL-10 [2] | IL-12 [2] | IL-18 [2] | TNFα [2] | secretion of IL-12 (p70) (murine BM-DCs [1]; [4]) | T cell stimulatory activity of exposed BM-DCs in mixed lymphocyte reaction (allogeneic T cells) | further results
1 | DPNAPKRPPSAFFLFCSE (Biotin-DPNAPKRPPSAFFLFCSE; listed as Homo sapiens) [Hp-91] | + | + | + | − | − | + | activated | increased production | increased production | enhanced the IL-6 secretion; also recorded: induced IL-6 secretion | + | − | − | + | + | + |  |  | IL-8 (murine BM-DCs [1]): −; IL-18 (murine BM-DCs [1]): −; TNFα (murine BM-DCs [1]): −; secretion of IL-1β (murine BM-DCs [1]; [4]): increased production; secretion of IL-8 (murine BM-DCs [1]; [4]): not; secretion of TNF-α (murine BM-DCs [1]; [4]): not; secretion of IL-8 [2, 5]: not; secretion of IL-12 (p70) [2, 5]: increased secretion; secretion of IL-18 [2, 5]: increased secretion; secretion of TNF-α [2, 5]: increased secretion
2 | YAFFVQTCREEHKKKHPD (Biotin-YAFFVQTCREEHKKKHPD; listed as Homo sapiens) [Hp-16] | + | + | + | − | − | + | activated | enhanced secretion | enhanced secretion |  | − | − | − | − | − | − | enhanced secretion | activated resting allogeneic T cells | CD40 expression (murine BM-DCs [3]): strong upregulation; CD86 expression (murine BM-DCs [3]): strong upregulation; MHC-II expression (murine BM-DCs [3]): strong upregulation; IL-8 (murine BM-DCs [1]): −; IL-18 (murine BM-DCs [1]): +; TNFα (murine BM-DCs [1]): −; secretion of IL-18 (murine BM-DCs [1]; [4]): enhanced secretion; secretion of IL-10 (murine BM-DCs [1]; [6]): enhanced secretion; activation of human DCs [2, 5]: no effect
3 | recombinant HMGB1: Human recombinant HMGB1 expressed in Escherichia coli; full-length sequence SEQ ID NO:1 |  |  |  |  |  |  |  |  |  |  |  |  |  |  |  |  |  |  | CD86 expression (immature DCs): increases; CD40 expression (immature DCs; rB box 100 μg/ml): increases; CD54 expression (immature DCs; rB box 100 μg/ml): increases; CD83 expression (immature DCs; rB box 100 μg/ml): increases; CD206 (macrophage mannose receptor) expression (immature DCs; rB box 100 μg/ml): decrease; MHCII expression (immature DCs; rB box 100 μg/ml): increases
4 | SIGDVAKKLGEMWNNTAA (Biotin-SIGDVAKKLGEMWNNTAA; listed as Homo sapiens) [Hp-121, control peptide] |  |  |  |  |  |  |  |  |  |  |  |  |  |  |  |  |  | did not show enhanced T cell stimulatory activity | CD40 expression (murine BM-DCs [3]): No altered expression; CD86 expression (murine BM-DCs [3]): No altered expression; MHC-II expression (murine BM-DCs [3]): No altered expression
5 | HPDASVNFSEFSKKCSER (Biotin-HPDASVNFSEFSKKCSER; listed as Homo sapiens) [Hp-31] | + | + | + | − | − | + | activated | enhanced the production | enhanced the production | induced secretion of IL-6 | + | − | − | + | + | + | enhanced the production |  | secretion of IL-1β (murine BM-DCs [1]; [4]): enhanced the production; secretion of IL-10 (murine BM-DCs [1]; [6]): not; secretion of IL-8 [2, 5]: not; secretion of IL-12 (p70) [2, 5]: increased secretion; secretion of IL-18 [2, 5]: increased secretion; secretion of TNF-α [2, 5]: increased secretion
6 | SERWKTMSAKEKGKFEDM (Biotin-SERWKTMSAKEKGKFEDM; listed as Homo sapiens) [Hp-46] |  |  |  |  |  |  |  |  |  |  |  |  |  |  |  |  |  | did not show enhanced T cell stimulatory activity | 
7 | CSEYRPKIKGEHPGLSIG [Hp-106 non-bio] |  |  |  |  |  |  |  |  |  | no activity |  |  |  |  |  |  | did not enhance IL-12 secretion |  | 
